The test system of the assay is infants at 24 months. As to the kind of experiment: Associations of maternal plasma carotenoids concentrations with Bayley Scales of Infant and Toddler Development-III (BSID-III) scores, GUSTO cohort, linear regression. The format is in vivo, human. The following applies: for Cognitive β (95% CI) / Expressive Language β (95% CI) / Fine motor β (95% CI) / Gross motor β (95% CI) / Receptive language β (95% CI): per SD increment in log-transformed maternal plasma concentration. As for the experimental part: The Bayley Scales of Infant and Toddler Development, 3rd edition (BSID-III) 2006 was administered to infants at 24 (±1) months, in their homes when infants were likely to be alert. This is a standardized test that assesses development of children 1-42 months of age in the following domains: cognitive, receptive and expressive language, and fine and gross motor skills. The test was administered in English, Chinese, Malay or Tamil languages depending on the child's dominant language.
Data for the present analysis were from the Growing Up in Singapore Towards healthy Outcomes (GUSTO) study a prospective mother-offspring cohort in Singapore (34). Detailed descriptions of the GUSTO study have been published Soh, et al 2014 Int. J Epidemiology 43(5):1401-9, which is hereby incorporated by reference. In brief, pregnant women (≥18 years) in their first trimester (<14 weeks) were recruited from the National University Hospital (NUH) and KK Women's and Children's Hospital (KKH) between June 2009 and September 2010. To be eligible for the study, the pregnant person had to: 1) be a Singapore citizen or permanent residents of Chinese, Malay or Indian ethnicity with homogenous parental ethnic background; 2) have an intention to deliver in the two hospitals and to reside in Singapore for the next five years; and 3) consent to donate birth tissues at delivery. Women receiving chemotherapy, psychotropic drugs or were diagnosed with type-1 diabetes were not eligible to participate. The GUSTO study has received ethical approval from the Institutional Review Board of NUH and KKH, and all procedures were conducted according to the guidelines laid down in the Declaration of Helsinki. Written informed consent was obtained from all participants at study recruitment.
A total of 1247 pregnant women participated at baseline. The present analysis included pregnant women who had singleton live births (n=1237), in whom plasma carotenoids concentrations were analyzed (n=701), and their offspring completed neurocognitive assessments at 24 months (n=361).
Administration and scoring was performed by research coordinators trained by the head psychologist from KKH in accordance to the manual. Raw test scores were used as age-specific norms were not available for our population.
Maternal plasma concentrations of individual carotenoids were summarized according to maternal and infant characteristics for the 419 mother-offspring pairs with data for the cognitive test. Differences in concentrations between groups were compared using non-parametric analyses Wilcoxon rank-sum and Kruskal-Wallis tests, as data were not normally distributed. Bonferroni post hoc analysis was performed to identify groups which differed if the Kruskal Wallis test was significant. The values for individual maternal plasma carotenoids were log-transformed, then converted to standard deviation scores (SDS) for easier interpretation. The BSID-III raw scores were also converted to SDS to facilitate comparison across the cognitive tests and domain scales.
Associations of each maternal plasma carotenoids with each BSID-III scale in the children were examined using linear regressions. Several statistical models were employed: Model 1 basic model with adjustment for infant's exact age at cognitive testing; Model 2 additional adjustment for maternal age, ethnicity, education, pre-pregnancy BMI, antenatal depression and anxiety levels (potential confounders). We considered Model 2 to be the main model. Further adjustment for infant gestational age, birth weight and breastfeeding duration was performed to examine if any associations found were acting through these factors (Model 3).
Missing data for covariates were imputed using multiple imputation technique with chained equations (20 times) for the following confounding variables: n=3 maternal education, n=7 EPDS, n=21 STAI, n=40 maternal pre-pregnancy BMI, n=5 infant birthweight and n=10 breastfeeding duration. […]

[1] abbreviates: Model 1 (adjusted for infant's age at testing), BSID-III at 24 months, n = 361.
Where [2] appears, read: Model 1, BSID-III at 24 months, n = 361.
Where [3] appears, read: Model 2 (Model 1 plus maternal age, ethnicity, education, pre-pregnancy BMI, parity, antenatal depression and anxiety), 24 months.
Where [4] appears, read: Model 2 (adjusted for confounders), 24 months.
Where [5] appears, read: Model 3 (Model 2 plus infant gestational age, birth weight, breastfeeding duration), 24 months.
Setting [6] is: Model 3 (also adjusted for potential mediators), 24 months.

SMILES strings stand for the structures.

On to `CC1=C[C@H](O)CC(C)(C)[C@H]1/C=C/C(C)=C/C=C/C(C)=C/C=C/C=C(C)/C=C/C=C(C)/C=C/C1=C(C)C[C@@H](O)CC1(C)C` [Lutein, lutein], for which the “Cognitive β (95% CI)” value under setting [1] is on record as 0.03 SD, the “Cognitive β (95% CI)” value under setting [3] was −0.08 SD and the “Cognitive β (95% CI)” value under setting [5] is listed as −0.11 SD. Moreover, the “Expressive Language β (95% CI)” value reads like this: under setting [2], 0.004 SD; under setting [4], −0.09 SD; under setting [6], −0.12 SD. Moreover, the “Fine motor β (95% CI)” value is 0.01 SD under setting [2], 0.02 SD under setting [4] and −0.04 SD under setting [6]. Further, the “Gross motor β (95% CI)” value is 0.03 SD under setting [2], −0.02 SD under setting [4] and −0.04 SD under setting [6]. Also, the “Receptive language β (95% CI)” value under setting [2] came out at 0.08 SD, the “Receptive language β (95% CI)” value under setting [4] is listed as −0.04 SD and the “Receptive language β (95% CI)” value under setting [6] is given as −0.08 SD.
With `CC(C)=CCC/C(C)=C/C=C/C(C)=C/C=C/C(C)=C/C=C/C=C(C)/C=C/C=C(C)/C=C/C=C(\C)CCC=C(C)C` [Lycopene, lycopene], the “association of higher maternal concentrations with performance in expressive language” value (24 months, result in words) is “associated with better performance”. Further, the “association of higher maternal concentrations with receptive language” value (24 months, result in words) was “not with receptive language”. The “Cognitive β (95% CI)” value was found to be 0.14 SD under setting [1], 0.12 SD under setting [3] and 0.11 SD under setting [5]. Besides, the “Expressive Language β (95% CI)” value under setting [2] is 0.15 SD; the “Expressive Language β (95% CI)” value under setting [4] worked out at 0.15 SD; the “Expressive Language β (95% CI)” value (Model 2 (adjusted for confounders), 24 months, listed as lycopene) worked out at 0.15 SD; the “Expressive Language β (95% CI)” value under setting [6] is listed as 0.14 SD. The “Fine motor β (95% CI)” value is reported as 0.04 SD under setting [2], 0.03 SD under setting [4] and 0.02 SD under setting [6]. The “Gross motor β (95% CI)” value was found to be 0.09 SD under setting [2], 0.08 SD under setting [4] and 0.09 SD under setting [6]. Besides, the “Receptive language β (95% CI)” value under setting [2] came out at 0.11 SD, the “Receptive language β (95% CI)” value under setting [4] was 0.09 SD and the “Receptive language β (95% CI)” value under setting [6] was determined as 0.07 SD.
Take `CC1=C(/C=C/C(C)=C/C=C/C(C)=C/C=C/C=C(C)/C=C/C=C(C)/C=C/C2=C(C)C[C@@H](O)CC2(C)C)C(C)(C)C[C@H](O)C1` [Zeaxanthin, zeaxanthin]: the “Cognitive β (95% CI)” value by setting is: under setting [1], 0.01 SD; under setting [3], 0.05 SD; under setting [5], 0.05 SD. Further, the “Expressive Language β (95% CI)” value reads like this: under setting [2], −0.09 SD; under setting [4], −0.05 SD; under setting [6], −0.04 SD. Besides, the “Fine motor β (95% CI)” value by setting is: under setting [2], 0.04 SD; under setting [4], 0.05 SD; under setting [6], 0.05 SD. For the same compound, the “Gross motor β (95% CI)” value by setting is: under setting [2], 0.02 SD; under setting [4], 0.04 SD; under setting [6], 0.05 SD. Moreover, the “Receptive language β (95% CI)” value under setting [2] is given as −0.10 SD, the “Receptive language β (95% CI)” value under setting [4] was −0.05 SD and the “Receptive language β (95% CI)” value under setting [6] is −0.04 SD.
For `CC1=CCCC(C)(C)C1/C=C/C(C)=C/C=C/C(C)=C/C=C/C=C(C)/C=C/C=C(C)/C=C/C1=C(C)CCCC1(C)C` (stereo not drawn) [α-carotene], the “Cognitive β (95% CI)” value is listed as 0.06 SD under setting [1], −0.01 SD under setting [3] and −0.04 SD under setting [5]. Moreover, the “Expressive Language β (95% CI)” value is, setting by setting: under setting [2], 0.10 SD; under setting [4], 0.06 SD; under setting [6], 0.02 SD. Further, the “Fine motor β (95% CI)” value is recorded as 0.08 SD under setting [2], 0.06 SD under setting [4] and 0.05 SD under setting [6]. Moreover, the “Gross motor β (95% CI)” value reads like this: under setting [2], 0.08 SD; under setting [4], 0.06 SD; under setting [6], 0.04 SD. Besides, the “Receptive language β (95% CI)” value reads like this: under setting [2], 0.09 SD; under setting [4], 0.002 SD; under setting [6], −0.04 SD.
`CC1=C(/C=C/C(C)=C/C=C/C(C)=C/C=C/C=C(C)/C=C/C=C(C)/C=C/C2=C(C)CCCC2(C)C)C(C)(C)CCC1` [β-carotene]: the “Cognitive β (95% CI)” value under setting [1] is on record as 0.22 SD, the “Cognitive β (95% CI)” value under setting [3] is listed as 0.16 SD and the “Cognitive β (95% CI)” value under setting [5] stood at 0.13 SD. The “Expressive Language β (95% CI)” value under setting [2] is reported as 0.18 SD, the “Expressive Language β (95% CI)” value under setting [4] was determined as 0.14 SD and the “Expressive Language β (95% CI)” value under setting [6] is given as 0.10 SD. Further, the “Fine motor β (95% CI)” value by setting is: under setting [2], 0.14 SD; under setting [4], 0.12 SD; under setting [6], 0.10 SD. The “Gross motor β (95% CI)” value is reported as 0.15 SD under setting [2], 0.14 SD under setting [4] and 0.12 SD under setting [6]. Besides, the “Receptive language β (95% CI)” value under setting [2] worked out at 0.23 SD, the “Receptive language β (95% CI)” value under setting [4] was found to be 0.15 SD and the “Receptive language β (95% CI)” value under setting [6] is listed as 0.11 SD.
With `CC1=C(/C=C/C(C)=C/C=C/C(C)=C/C=C/C=C(C)/C=C/C=C(C)/C=C/C2=C(C)C[C@@H](O)CC2(C)C)C(C)(C)CCC1` [β-cryptoxanthin], the “association of higher maternal concentrations with cognitive development in infants” value (BSID-III scales at 24 months, after adjustment for confounders, result in words) was “most consistently associated with better cognitive development”. For the same compound, the “Cognitive β (95% CI)” value worked out at 0.21 SD under setting [1], 0.18 SD under setting [3] and 0.18 SD under setting [5]. The “Expressive Language β (95% CI)” value was found to be 0.15 SD under setting [2], 0.13 SD under setting [4] and 0.12 SD under setting [6]. In addition, the “Fine motor β (95% CI)” value under setting [2] is 0.17 SD, the “Fine motor β (95% CI)” value under setting [4] is given as 0.16 SD and the “Fine motor β (95% CI)” value under setting [6] worked out at 0.15 SD. Moreover, the “Gross motor β (95% CI)” value under setting [2] was determined as 0.17 SD, the “Gross motor β (95% CI)” value under setting [4] is listed as 0.16 SD and the “Gross motor β (95% CI)” value under setting [6] was 0.15 SD. Also, the “Receptive language β (95% CI)” value reads like this: under setting [2], 0.21 SD; under setting [4], 0.17 SD; under setting [6], 0.16 SD.
